Test results from paper PMC5670239, “Structural basis for mutually exclusive co-transcriptional nuclear cap-binding complexes with either NELF-E or ARS2” (Nature Communications, 2017).

Target: T1, CBC (Homo sapiens, UniProt P52298)
T1 sequence (P52298 1-156): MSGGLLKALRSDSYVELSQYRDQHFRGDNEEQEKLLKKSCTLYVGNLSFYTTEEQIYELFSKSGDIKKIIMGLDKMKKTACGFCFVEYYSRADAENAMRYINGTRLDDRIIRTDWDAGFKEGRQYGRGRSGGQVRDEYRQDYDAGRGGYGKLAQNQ
T1 sequence (Q09161 20-790 partner): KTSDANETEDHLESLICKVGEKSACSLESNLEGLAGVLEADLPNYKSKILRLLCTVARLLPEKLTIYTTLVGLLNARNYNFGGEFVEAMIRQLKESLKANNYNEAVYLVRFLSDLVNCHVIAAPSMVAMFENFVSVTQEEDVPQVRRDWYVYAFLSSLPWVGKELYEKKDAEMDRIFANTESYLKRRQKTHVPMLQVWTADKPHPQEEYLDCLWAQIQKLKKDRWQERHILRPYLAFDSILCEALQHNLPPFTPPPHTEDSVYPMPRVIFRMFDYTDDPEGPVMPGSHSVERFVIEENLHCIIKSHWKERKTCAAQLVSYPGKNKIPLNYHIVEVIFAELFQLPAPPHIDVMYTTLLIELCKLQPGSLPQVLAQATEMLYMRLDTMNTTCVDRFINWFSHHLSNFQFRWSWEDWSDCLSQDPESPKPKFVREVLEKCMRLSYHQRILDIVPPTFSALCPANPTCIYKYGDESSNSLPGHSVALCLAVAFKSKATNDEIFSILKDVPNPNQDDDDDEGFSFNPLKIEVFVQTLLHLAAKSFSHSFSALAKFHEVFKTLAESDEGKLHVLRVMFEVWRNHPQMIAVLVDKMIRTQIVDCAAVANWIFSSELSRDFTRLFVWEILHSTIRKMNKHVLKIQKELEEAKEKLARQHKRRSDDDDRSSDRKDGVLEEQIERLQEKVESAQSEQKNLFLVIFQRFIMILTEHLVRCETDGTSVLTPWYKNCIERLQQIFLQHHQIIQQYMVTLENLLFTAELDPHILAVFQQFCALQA
Test: ITC, binding to CBC without cap analogue
Conditions: ITC (MicroCal ITC200), 25 °C, 20 mM HEPES, 120 mM NaCl, 2 mM TCEP, pH 7.8, single-site fit, no cap analogue pre-bound, mean ± SD of at least two independent experiments
Excerpt: hARS2 isoform-4 (871 residues, UniProt:Q9BXP5-4, also known as isoform-e, NP_001122326) constructs (residues 147–871, 147–845, 763–871, 763–845, 827–871) hNELF-E (NM_002904.5) (244–380, 244–360) and hPHAX (NM_032177.3) (1–394, 103–294, 103–308, 103–327) were cloned into pETM11 (EMBL). Full-length hNELF-E (1–380) was cloned into pFASTBac and CBP20 into pETM30. Primers used are given in Supplementary Table 2. All constructs were expressed in E. coli Rosetta 2 (Novagen), except full-length NELF-E and CBP80ΔNLS (CBP80 with residues 1–19 deleted[2]), which were expressed in High Five insect cells (Life Technology). Cells were harvested and lysed by sonication in lysis buffer containing 50 mM HEPES, pH 7.8, 300 mM NaCl, 10% (v/v) glycerol, 5 mM β-mercaptoethanol. Lysates were clarified by centrifugation and applied on an equilibrated Ni-sepharose column (GE Healthcare), washed with 20 mM imidazole in lysis buffer, and eluted with 300 mM imidazole in lysis buffer. While dialysing into 20 mM HEPES, pH 7.8, 120 mM NaCl, 10% (v/v) glycerol, 5 mM β-mercaptoethanol, the N-terminal 6-histidine-tag was cleaved with His-tagged Tobacco Etch Virus (TEV) protease overnight in a ratio 1:100 mg TEV per mg protein. The cleaved protein was further purified first on Ni-sepharose to remove TEV and then using an anion exchange column (HiTrap Q, GE Healthcare) followed if necessary by a Heparin column (GE Healthcare). In both cases a NaCl gradient from 50 to 800 mM in 20 mM HEPES 7.8, 0.5 mM tris(2-carboxyethyl)phosphine was used. To reconstitute the CBC heterodimer, cleared His-tagged CBP20 lysate was first immobilised on a Ni-sepharose column. After washing the column with lysis buffer, the cleared CBP80 lysate was applied to the column and further purification steps performed as described above. To remove the access of CBP20 the flow through of the Ni-column after TEV cleavage was loaded on an anion exchange column (HiTrap Q, GE Healthcare) and CBC eluted by a NaCl gradient as described above. In the text we refer to CBP80ΔNLS and CBP80ΔNLS-CBP20 as CBP80 and CBC, respectively. […]

With `C[n+]1cn([C@@H]2O[C@H](COP(=O)(O)OP(=O)([O-])OP(=O)(O)O)[C@@H](O)[C@H]2O)c2nc(N)[nH]c(=O)c21` [m^7GTP] the Kd was 100 nM and the Kd (SD) was 126 ± 45 nM.
